Source: paper PMC3199943, “Screening the MayBridge Rule of 3 Fragment Library for Compounds That Interact with the Trypanosoma brucei myo-Inositol-3-Phosphate Synthase and/or Show Trypanocidal Activity” (Molecular Biology International, 2011)
Structures can show the parent of a compound that is named as a salt.

These compounds were tested on A549 cells (assay: Cytotoxicity against A549 cells, Alamar Blue). Details: Homo sapiens, A549, 65 h; Supplementary Table 1; compound 0.5 mM; percentage of controls (n=1).
Format: cell-based
Outline: (§1)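 HeLa and A549 cells grown in DMEM with 10% FCS and 2 mM L-Glutamine were seeded at 2 × 10^4 cells/well. They were exposed to compounds for ~65 hours, then Alamar Blue was added for a further 5 hours to measure viability.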

Compound	viability at 500 µM
OCc1ccccc1-n1cccc1 [compound 371, [2‐(1H‐pyrrol‐1‐yl)phenyl]methanol]	87.3%
OCc1ccc(-n2cccc2)cc1 [compound 372, [4-(1H-pyrrol-1-yl)phenyl]methanol]	52.9%
NCc1ccc(-c2ccco2)cc1 [compound 373, [4‐(2‐furyl)phenyl]methylamine]	63.4%
Cc1ccc2cc(CO)ccc2n1 [compound 374, (2‐methyl‐6‐quinolinyl)methanol]	46.3%
Nc1cccc(Cn2ccnc2)c1 [compound 377, 3‐(1H‐imidazol‐1‐ylmethyl)aniline]	62.4%
NCc1ccc(-n2cccn2)cc1 [compound 378, 4‐(1H‐pyrazol‐1‐yl)benzylamine]	95.9%
NC(=O)c1ccc(F)c(Cl)c1 [compound 380, 3‐chloro‐4‐fluorobenzamide]	95.9%
O=C(O)Cc1cccnc1 [compound 381, pyridin‐3‐ylacetic acid hydrochloride]	105%
OCc1ccc(-c2ccco2)cc1 [compound 383, [4-(2-furyl)phenyl]methanol]	89.6%
N#CCc1nc2ccccc2s1 [compound 387, 2‐(1,3‐benzothiazol‐2‐yl)acetonitrile]	81%
NCc1ccc(C(F)(F)F)cc1 [compound 390, 4‐(trifluoromethyl)benzylamine]	136%
O=C(O)Cc1c[nH]c2ccccc12 [compound 391, 2-(1H-indol-3-yl)acetic acid]	134%
COC(=O)c1c[nH]c2ccccc12 [compound 392, methyl 1H‐indole‐3‐carboxylate]	88.1%
Cn1ccc2cc(C(=O)O)ccc21 [compound 394, 1‐methyl‐1H‐indole‐5‐carboxylic acid]	82%
Cn1c(=O)cc(O)c2ccccc21 [compound 395, 4-hydroxy-1-methyl-1,2-dihydroquinolin-2-one]	174%
COC(=O)c1cccc2cc[nH]c12 [compound 396, methyl 1H‐indole‐7‐carboxylate]	164%
Cn1ccc2c(C(=O)O)cccc21 [compound 399, 1‐methyl‐1H‐indole‐4‐carboxylic acid]	123%
CC(=O)Nc1ccc2c(c1)CCC2 [compound 400, N1‐(2,3‐dihydro‐1H‐inden‐5‐yl)acetamide]	99.3%

Each compound was assayed on HeLa cells (assay: cells). Details: Homo sapiens, HeLa, 65 h, read-out: HeLa Cells Alamar Blue.
Outline: as §1

Compound	viability at 500 µM
OCc1ccccc1-n1cccc1 [compound 371, [2‐(1H‐pyrrol‐1‐yl)phenyl]methanol]	88.5 ± 6.4%
OCc1ccc(-n2cccc2)cc1 [compound 372, [4-(1H-pyrrol-1-yl)phenyl]methanol]	94.9 ± 19.4%
NCc1ccc(-c2ccco2)cc1 [compound 373, [4‐(2‐furyl)phenyl]methylamine]	82.5 ± 14.3%
Cc1ccc2cc(CO)ccc2n1 [compound 374, (2‐methyl‐6‐quinolinyl)methanol]	53.2 ± 2.6%
Nc1cccc(Cn2ccnc2)c1 [compound 377, 3‐(1H‐imidazol‐1‐ylmethyl)aniline]	103 ± 12.6%
NCc1ccc(-n2cccn2)cc1 [compound 378, 4‐(1H‐pyrazol‐1‐yl)benzylamine]	101 ± 8.3%
NC(=O)c1ccc(F)c(Cl)c1 [compound 380, 3‐chloro‐4‐fluorobenzamide]	92.2 ± 13.4%
O=C(O)Cc1cccnc1 [compound 381, pyridin‐3‐ylacetic acid hydrochloride]	99.2 ± 9.9%
OCc1ccc(-c2ccco2)cc1 [compound 383, [4-(2-furyl)phenyl]methanol]	20 ± 10.6%
N#CCc1nc2ccccc2s1 [compound 387, 2‐(1,3‐benzothiazol‐2‐yl)acetonitrile]	86.4 ± 10.4%
NCc1ccc(C(F)(F)F)cc1 [compound 390, 4‐(trifluoromethyl)benzylamine]	84.4 ± 6.8%
O=C(O)Cc1c[nH]c2ccccc12 [compound 391, 2-(1H-indol-3-yl)acetic acid]	42.6 ± 6.4%
COC(=O)c1c[nH]c2ccccc12 [compound 392, methyl 1H‐indole‐3‐carboxylate]	110 ± 3.7%
Cn1ccc2cc(C(=O)O)ccc21 [compound 394, 1‐methyl‐1H‐indole‐5‐carboxylic acid]	95 ± 12.2%
Cn1c(=O)cc(O)c2ccccc21 [compound 395, 4-hydroxy-1-methyl-1,2-dihydroquinolin-2-one]	93 ± 0.3%
COC(=O)c1cccc2cc[nH]c12 [compound 396, methyl 1H‐indole‐7‐carboxylate]	36.5 ± 11.9%
Cn1ccc2c(C(=O)O)cccc21 [compound 399, 1‐methyl‐1H‐indole‐4‐carboxylic acid]	99.3 ± 14.2%
CC(=O)Nc1ccc2c(c1)CCC2 [compound 400, N1‐(2,3‐dihydro‐1H‐inden‐5‐yl)acetamide]	23.9 ± 13.6%

Same assay, conditions: Homo sapiens, HeLa, 65 h, read-out: HeLa Cells Alamar Blue (% survival)

Compound	viability at 500 µM
OCc1ccc(-n2cccc2)cc1 [compound 372, [4-(1H-pyrrol-1-yl)phenyl]methanol]	94.9 ± 19.4%
OCc1ccc(-c2ccco2)cc1 [compound 383, [4-(2-furyl)phenyl]methanol]	20 ± 10.6%
O=C(O)Cc1c[nH]c2ccccc12 [compound 391, 2-(1H-indol-3-yl)acetic acid]	42.6 ± 6.4%
Cn1c(=O)cc(O)c2ccccc21 [compound 395, 4-hydroxy-1-methyl-1,2-dihydroquinolin-2-one]	93 ± 0.3%

Same assay, conditions: Homo sapiens, HeLa, read-out: HeLa ED50

Compound	CC50
OCc1ccc(-n2cccc2)cc1 [compound 372, [4-(1H-pyrrol-1-yl)phenyl]methanol]	3300 ± 210 µM
OCc1ccc(-c2ccco2)cc1 [compound 383, [4-(2-furyl)phenyl]methanol]	292 ± 31 µM

What follows are compounds tested against T1, TbINO1 (Trypanosoma brucei brucei, UniProt Q5QQ46) (assay: biochemical). Details: read-out: Tb Ino1 Tm Shift [˚C].
T1 sequence (Q5QQ46 1-528): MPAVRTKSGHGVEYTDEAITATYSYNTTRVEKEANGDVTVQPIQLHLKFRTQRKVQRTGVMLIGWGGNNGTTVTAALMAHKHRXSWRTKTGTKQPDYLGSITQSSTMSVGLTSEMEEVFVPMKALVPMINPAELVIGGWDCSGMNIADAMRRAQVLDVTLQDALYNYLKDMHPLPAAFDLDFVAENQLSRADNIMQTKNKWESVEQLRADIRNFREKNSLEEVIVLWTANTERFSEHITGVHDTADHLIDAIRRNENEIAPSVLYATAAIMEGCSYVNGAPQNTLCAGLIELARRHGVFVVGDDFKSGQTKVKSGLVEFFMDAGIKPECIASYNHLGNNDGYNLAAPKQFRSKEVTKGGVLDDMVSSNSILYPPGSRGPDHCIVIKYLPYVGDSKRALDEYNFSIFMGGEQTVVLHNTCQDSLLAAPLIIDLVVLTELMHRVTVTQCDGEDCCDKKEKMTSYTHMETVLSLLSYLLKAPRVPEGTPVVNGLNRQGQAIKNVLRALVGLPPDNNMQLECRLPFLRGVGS
Format: binding

ΔTm at 1000 µM	Compound
0.48 ± 0.05 °C	NCc1ccc(-c2ccco2)cc1 [compound 373, [4‐(2‐furyl)phenyl]methylamine]
0.1 ± 0.06 °C	Cc1ccc2cc(CO)ccc2n1 [compound 374, (2‐methyl‐6‐quinolinyl)methanol]
1.08 ± 0.05 °C	O=C(O)Cc1cccnc1 [compound 381, pyridin‐3‐ylacetic acid hydrochloride]
1.29 ± 0.14 °C	N#CCc1nc2ccccc2s1 [compound 387, 2‐(1,3‐benzothiazol‐2‐yl)acetonitrile]
0.38 ± 0.08 °C	NCc1ccc(C(F)(F)F)cc1 [compound 390, 4‐(trifluoromethyl)benzylamine]
0.22 ± 0.06 °C	COC(=O)c1c[nH]c2ccccc12 [compound 392, methyl 1H‐indole‐3‐carboxylate]
0 °C	Cn1ccc2cc(C(=O)O)ccc21 [compound 394, 1‐methyl‐1H‐indole‐5‐carboxylic acid]
0.63 ± 0.07 °C	Cn1ccc2c(C(=O)O)cccc21 [compound 399, 1‐methyl‐1H‐indole‐4‐carboxylic acid]
0.12 ± 0.07 °C	CC(=O)Nc1ccc2c(c1)CCC2 [compound 400, N1‐(2,3‐dihydro‐1H‐inden‐5‐yl)acetamide]

Further lines, the compound ahead of its results:

Compound	ΔTm at 1000 µM
OCc1ccccc1-n1cccc1 [compound 371, [2‐(1H‐pyrrol‐1‐yl)phenyl]methanol]	0.36 ± 0.07 °C
Nc1cccc(Cn2ccnc2)c1 [compound 377, 3‐(1H‐imidazol‐1‐ylmethyl)aniline]	0.19 ± 0.07 °C
NCc1ccc(-n2cccn2)cc1 [compound 378, 4‐(1H‐pyrazol‐1‐yl)benzylamine]	0.19 ± 0.06 °C
NC(=O)c1ccc(F)c(Cl)c1 [compound 380, 3‐chloro‐4‐fluorobenzamide]	0.31 ± 0.06 °C
COC(=O)c1cccc2cc[nH]c12 [compound 396, methyl 1H‐indole‐7‐carboxylate]	0.12 ± 0.11 °C

Same assay, conditions: read-out: TbIno1 Tm shift [°C]

ΔTm at 1000 µM	Compound
3.12 ± 0.04 °C	OCc1ccc(-n2cccc2)cc1 [compound 372, [4-(1H-pyrrol-1-yl)phenyl]methanol]
3.45 ± 0.09 °C	OCc1ccc(-c2ccco2)cc1 [compound 383, [4-(2-furyl)phenyl]methanol]
1.67 ± 0.08 °C	O=C(O)Cc1c[nH]c2ccccc12 [compound 391, 2-(1H-indol-3-yl)acetic acid]
1.62 ± 0.03 °C	Cn1c(=O)cc(O)c2ccccc21 [compound 395, 4-hydroxy-1-methyl-1,2-dihydroquinolin-2-one]
